Measured values published in PMC10184313, “Inhibition of Thiamine Diphosphate-Dependent Enzymes by Triazole-Based Thiamine Analogues” (ACS Medicinal Chemistry Letters, 2023).
Read-outs that look alike come from different tables or passages of the source.

How the values were obtained:
porcine PDHc E1 = biological target: T1, porcine PDHc E1 (Sus scrofa, UniProt P29804); assay: PDHc E1 inhibitory activity assay (DCPIP reduction); assay type: biochemical
T1 sequence (P29804 31-390): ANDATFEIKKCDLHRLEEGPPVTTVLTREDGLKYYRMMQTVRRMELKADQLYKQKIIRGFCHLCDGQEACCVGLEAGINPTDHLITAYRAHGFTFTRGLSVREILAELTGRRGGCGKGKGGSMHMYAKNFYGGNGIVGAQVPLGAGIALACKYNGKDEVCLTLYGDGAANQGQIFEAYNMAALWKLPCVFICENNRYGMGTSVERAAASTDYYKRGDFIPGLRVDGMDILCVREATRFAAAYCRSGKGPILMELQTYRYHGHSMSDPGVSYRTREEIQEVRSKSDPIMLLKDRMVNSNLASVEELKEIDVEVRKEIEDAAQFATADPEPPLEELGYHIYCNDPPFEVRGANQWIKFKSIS
Description: Enzyme assays – Methods and Results S1
Ligand efficiencies – Calculations S3 […]
Enzyme assays (Methods and Results)
PDHc E1 inhibitory activity assay. Porcine PDHc E1 was purchased from Sigma. Its activity was […]
determined by monitoring 2,6-dichlorophenolindophenol (DCPIP) reduction at 600 nm using a […]
microplate reader (CLARIOstar) and conducted as described 1,2 with some modifications. The percentage inhibition of compounds against porcine PDHc E1 was assayed at a final concentration of 250 µM. The reaction buffer (50 mM KH 2PO4 and 1 mM MgCl 2, pH 7) contained 50 µM ThDP (or 125 µM in the competition assay), 0.25 mM DCPIP, and 2 mg/ml porcine PDHc E1. The reaction mixture […]
was preincubated at 37 °C for 30 min, then the reaction was initiated by adding pyruvate to a final […]
concentration of 50 mM. To determine the half-maximal inhibitory concentration (IC 50 ), ThDP […]
concentration was lowered to 10 µM, and inhibitor concentration was varied (0.4-200 µM). Specific […]
activity was calculated using the molar extinction coefficient of DCPIP, 21 mM -1 cm-1.3 The enzyme […]
IC50 values were calculated from non-linear regression curve fitting using GraphPad Prism.

A. viridans PO = biological target: T2, A. viridans PO (Aerococcus viridans, UniProt A9X9K8); assay: A. viridans PO inhibitory activity assay (quinoneimine dye); assay type: biochemical
T2 sequence (A9X9K8 1-592): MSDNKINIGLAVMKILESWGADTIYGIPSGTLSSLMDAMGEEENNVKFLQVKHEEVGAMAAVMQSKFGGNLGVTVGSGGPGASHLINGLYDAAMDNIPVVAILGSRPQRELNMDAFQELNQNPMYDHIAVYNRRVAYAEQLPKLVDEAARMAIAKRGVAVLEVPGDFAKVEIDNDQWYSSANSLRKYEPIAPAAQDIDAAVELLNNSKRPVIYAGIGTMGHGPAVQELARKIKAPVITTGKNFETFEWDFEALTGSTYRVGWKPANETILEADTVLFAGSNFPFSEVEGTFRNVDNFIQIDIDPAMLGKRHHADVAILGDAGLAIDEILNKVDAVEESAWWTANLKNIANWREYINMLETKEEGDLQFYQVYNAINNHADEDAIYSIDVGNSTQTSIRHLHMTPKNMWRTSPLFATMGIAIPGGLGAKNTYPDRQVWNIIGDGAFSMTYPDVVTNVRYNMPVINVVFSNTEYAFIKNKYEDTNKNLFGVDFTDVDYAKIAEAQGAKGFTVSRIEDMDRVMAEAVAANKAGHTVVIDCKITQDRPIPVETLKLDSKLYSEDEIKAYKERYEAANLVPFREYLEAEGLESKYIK
Description: A. viridans PO inhibitory activity assay. A. viridans PO and horseradish peroxidase were purchased from Sigma. A. viridans PO activity was determined by monitoring appearance of quinoneimine dye at 550 nm using a microplate reader (CLARIOstar) and conducted as described 1 with some modifications.
The percentage inhibition of compounds against A. viridans PO was assayed at a final concentration of 250 µM. The reaction buffer (50 mM KH 2PO4 and 10 mM MgCl 2, pH 5.9) contained 50 µM ThDP (or 125 µM in the competition assay), 10 µM flavin adenine dinucleotide (FAD), 0.15% 4-Aminoantipyrine, 0.3% N-Ethyl-N-(2-hydroxy-3-sulfopropyl)-m-toluidine (EHSPT), 50 µg/mL horseradish peroxidase and 0.35 U/mL A. viridans PO. The reaction mixture was preincubated at 37 °C for 30 min, then reaction was initiated by adding pyruvate to a final concentration of 50 mM. To determine the IC 50, inhibitor concentration was varied (2-1000 µM) with ThDP concentration at 50 µM. 1 unit of PO activity is defined as 1 μmol of hydrogen peroxide produced per minute. The enzyme IC 50 values were calculated as described for the PDHc E1 assay. […]

P. falciparum strain 3D7 = assay: Anti-plasmodial activity assay (SYBR-Safe); assay type: cell-based, Plasmodium falciparum; conditions: Plasmodium falciparum
Description: Next the effects of the thiamine/ThDP analogues on in vitro proliferation of the 3D7 strain of P. falciparum were determined. […] Parasite proliferation was measured by SYBR-Safe assay of parasite DNA.[11],[15]
Cell-based assays (Results)
Anti-plasmodial activity assay. This study used human malaria parasite P. falciparum strain 3D7 (chloroquine-sensitive) and the same strain expressing an extra copy of TPK with a GFP-tag ( PfTPK-GFP) generated as previously described. 9 The intraerythrocytic stage of the parasites were maintained essentially as previously described. 10 Compounds were tested at concentrations up to a highest final […]
were prepared in dimethyl sulfoxide (DMSO) followed by dilution in RPMI 1640 medium in the absence of thiamine or in the presence of 2.97 µM (or 297 µM) thiamine. The final concentration of DMSO that the parasites were exposed to never exceeded 0.05%. Two-fold serial dilutions were then performed, with each concentration tested in triplicate. The assay was performed as described 11 with some modifications. Experiments were initiated with parasites in the ring-stage, a parasitemia level of 0.5% and a haematocrit of 2%. Chloroquine (0.5 µM) was used as the positive control ( i.e. complete inhibition of parasite proliferation), and parasites maintained in the absence of any inhibitor represented 100% parasite proliferation. The final volume in each well was 200 µL. Plates were incubated at 37 °C, under an atmosphere of 96% nitrogen, 3% carbon dioxide and 1% oxygen. Parasite proliferation was measured by performing SYBR-Safe assay. 12 The concentration at which the compound suppresses […]
Excel and analysed by non-linear regression plot using GraphPad Prism. The data were averaged from three independent experiments. […]

[1] = [Compound] = 250 μM, [ThDP] = 50 μM
[2] = increased ThDP: [Compound] = 250 μM, [ThDP] = 125 μM

Row | SMILES | Inhibition (%) PDHc E1 (porcine PDHc E1; [1]) [%] | Inhibition (%) PO (A. viridans PO; [1]) [%] | Inhibition (%) PDHc E1 (porcine PDHc E1; [2]) [%] | Inhibition (%) PO (A. viridans PO; [2]) [%] | IC50 (P. falciparum strain 3D7; 3D7, 3D7, [Thiamine] = 2.97 μM, read-out: IC50 of Suppression of P. falciparum proliferation, [Thiamine] = 2.97 μM) [µM] | IC50 (P. falciparum strain 3D7; 3D7, 3D7, [Thiamine] = 297 μM, read-out: IC50 of Suppression of P. falciparum proliferation, [Thiamine] = 297 μM) [µM] | IC50 (P. falciparum strain 3D7; 3D7, 3D7, thiamine-free medium, read-out: IC50 of Suppression of P. falciparum proliferation, Thiamine-free) [µM]
1 | Cc1ncc(Cn2cc(CCCO)nn2)c(N)n1 [Compound 9b] | 52 ± 3 | < 20 | – | – | – | – | –
2 | Cc1ncc(Cn2cc(CCCCn3cc(-c4ccc(F)cc4)nn3)nn2)c(N)n1 [Compound 16c] | > 90 | < 20 | 79 ± 2 | <20 | 70 ± 8 | 89 ± 19 | 67 ± 5
3 | Cc1ncc(Cn2cc(CCC(=O)Nc3ccccc3N)nn2)c(N)n1 [Compound 26a] | 75 ± 5 | < 20 | – | – | – | – | –
4 | Cc1ncc(Cn2cc(CCOC(=O)c3cccc(C#N)c3)nn2)c(N)n1 [Compound 14a] | 71 ± 4 | < 20 | – | – | – | – | –
5 | Cc1ncc(Cn2cc(CCO)nn2)c(N)n1 [Compound 9a] | 55 ± 2 | < 20 | – | – | – | – | –
6 | Cc1ncc(Cn2cc(CCCCn3cc(-c4ccccc4)nn3)nn2)c(N)n1 [Compound 15c] | > 90 | < 20 | 75 ± 4 | <20 | – | – | –
7 | Cc1ncc(Cn2cc(CCCn3cc(-c4ccccc4)nn3)nn2)c(N)n1 [Compound 15b] | 65 ± 4 | < 20 | 40 ± 4 | <20 | – | – | –
8 | Cc1ncc(Cn2cc(CCC(=O)NO)nn2)c(N)n1 [Compound 24a] | 77 ± 3 | < 20 | – | – | – | – | –
9 | Cc1ncc(Cn2cc(CCNC(=O)c3cccc(C#N)c3)nn2)c(N)n1 [Compound 20a] | 46 ± 4 | < 20 | – | – | – | – | –
10 | Cc1ncc(Cn2cc(CCCCC(=O)Nc3ccccc3N)nn2)c(N)n1 [Compound 26c] | 64 ± 4 | < 20 | – | – | – | – | –
11 | Cc1ncc(Cn2cc(CCNS(=O)(=O)C(F)(F)F)nn2)c(N)n1 [Compound 18a] | 50 ± 2 | < 20 | – | – | – | – | –
12 | Cc1ncc(Cn2cc(CCNC(=O)c3cccc(-c4noc(C(F)(F)F)n4)c3)nn2)c(N)n1 [Compound 19a] | 48 ± 3 | < 20 | – | – | – | – | –
13 | COc1ccccc1C(=O)NCCCc1cn(Cc2cnc(C)nc2N)nn1 [Compound 22b] | 58 ± 3 | < 20 | – | – | – | – | –
14 | Cc1ncc(Cn2cc(CCOC(=O)c3cccc(-c4noc(C(F)(F)F)n4)c3)nn2)c(N)n1 [Compound 13a] | 72 ± 2 | < 20 | – | – | – | – | –
15 | Cc1ncc(Cn2cc(CCCCO)nn2)c(N)n1 [Compound 9c] | 57 ± 2 | < 20 | – | – | – | – | –
16 | Cc1ncc(Cn2cc(CCCCNS(=O)(=O)C(F)(F)F)nn2)c(N)n1 [Compound 18c] | 71 ± 3 | 22 ± 4 | – | – | – | – | –
17 | COc1cccc(C(=O)NCCc2cn(Cc3cnc(C)nc3N)nn2)c1 [Compound 21a] | 67 ± 4 | < 20 | – | – | – | – | –
18 | Cc1ncc(Cn2cc(CCCC(=O)Nc3ccccc3N)nn2)c(N)n1 [Compound 26b] | 59 ± 2 | < 20 | – | – | – | – | –
19 | Cc1ncc(Cn2cc(CCn3cc(-c4ccccc4)nn3)nn2)c(N)n1 [Compound 15a] | 45 ± 3 | 22 ± 2 | <20 | <20 | – | – | –
20 | COc1cccc(C(=O)NCCCCc2cn(Cc3cnc(C)nc3N)nn2)c1 [Compound 21c] | 60 ± 5 | < 20 | – | – | – | – | –
21 | COc1ccccc1C(=O)NCCc1cn(Cc2cnc(C)nc2N)nn1 [Compound 22a] | 83 ± 4 | < 20 | – | – | – | – | –
22 | COc1cccc(C(=O)NCCCc2cn(Cc3cnc(C)nc3N)nn2)c1 [Compound 21b] | 61 ± 2 | < 20 | – | – | – | – | –
23 | Cc1ncc(C[n+]2csc(CCO[P@@](=O)(O)OP(=O)(O)O)c2C)c(O)n1 [OxThDP 7b, oxythiamine diphosphate, reference compound] | > 90 | 48 ± 4 | 75 ± 3 | 32 ± 5 | – | – | –
24 | COc1ccccc1C(=O)NCCCCc1cn(Cc2cnc(C)nc2N)nn1 [Compound 22c] | 58 ± 2 | < 20 | – | – | – | – | –
25 | Cc1ncc(Cn2cc(CCCNS(=O)(=O)C(F)(F)F)nn2)c(N)n1 [Compound 18b] | 55 ± 2 | < 20 | – | – | – | – | –
